Common to all, as to assay type: functional, cell-based
Assay [1] addresses T1, Taste receptor type 2 member 7 (Homo sapiens) (UniProt Q9NYW3).
T1 sequence (whole entry): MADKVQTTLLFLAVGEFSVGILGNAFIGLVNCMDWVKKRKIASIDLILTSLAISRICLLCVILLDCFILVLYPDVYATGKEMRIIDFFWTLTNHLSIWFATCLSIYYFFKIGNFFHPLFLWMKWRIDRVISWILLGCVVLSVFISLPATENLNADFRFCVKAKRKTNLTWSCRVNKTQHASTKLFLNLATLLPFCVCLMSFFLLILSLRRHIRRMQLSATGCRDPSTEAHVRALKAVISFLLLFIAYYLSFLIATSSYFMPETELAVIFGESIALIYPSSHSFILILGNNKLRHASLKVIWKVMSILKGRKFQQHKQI
The experiment in a line: Agonist activity at N-terminal rat ST3 receptor-fused full length human TAS2R7 transiently expressed in HEK293T cells co-expressing Galpha16gust44 assessed as increase in intracellular calcium level by measuring deltaF/F0 ratio level by Fluo-4AM dye based FLIPR assay. (In general: Calcium flux is commonly read through the fluorescence of an indicator in the cells.)

The target in assay [2] is T1, Taste receptor type 2 member 7 (Homo sapiens). The experiment in a line: Agonist activity at N-terminal rat ST3 receptor-fused full length human TAS2R7 stably expressed in HEK293T cells co-expressing Galpha16gust44 assessed as increase in intracellular calcium level by measuring deltaF/F0 ratio level at 0.02 mM by Fluo-4AM dye based FLIPR assay (reference value: 0.08 +/- 0.03).

For assay [3] the target is unchanged. Description: Agonist activity at N-terminal rat ST3 receptor-fused full length human TAS2R7 stably expressed in HEK293T cells co-expressing Galpha16gust44 assessed as increase in intracellular calcium level by measuring deltaF/F0 ratio level at 0.16 mM by Fluo-4AM dye based FLIPR assay (reference value: 0.15 +/- 0.06).
The target is the same in assay [4]. The experiment in a line: Agonist activity at N-terminal rat ST3 receptor-fused full length human TAS2R7 stably expressed in HEK293T cells co-expressing Galpha16gust44 assessed as increase in intracellular calcium level by measuring deltaF/F0 ratio level at 0.33 mM by Fluo-4AM dye based FLIPR assay (reference value: 0.34 +/- 0.06).
Assay [5] shares this target. The experiment in a line: Agonist activity at N-terminal rat ST3 receptor-fused full length human TAS2R7 transiently expressed in HEK293T cells co-expressing Galpha16gust44 assessed as increase in intracellular calcium level by measuring deltaF/F0 ratio level at 2.60 mM by Fluo-4AM dye based FLIPR assay.
Assay [6] has the same target. The experiment in a line: Agonist activity at N-terminal rat ST3 receptor-fused full length human TAS2R7 stably expressed in HEK293T cells co-expressing Galpha16gust44 assessed as increase in intracellular calcium level by measuring deltaF/F0 ratio level at 0.65 mM by Fluo-4AM dye based FLIPR assay (reference value: 0.41 +/- 0.14).
The target is the same in assay [7]. The experiment in a line: Agonist activity at N-terminal rat ST3 receptor-fused full length human TAS2R7 stably expressed in HEK293T cells co-expressing Galpha16gust44 assessed as increase in intracellular calcium level by measuring deltaF/F0 ratio level at 1.3 mM by Fluo-4AM dye based FLIPR assay (reference value: 0.53 +/- 0.1).
For assay [8] the target is unchanged. Description: Agonist activity at N-terminal rat ST3 receptor-fused full length human TAS2R7 stably expressed in HEK293T cells co-expressing Galpha16gust44 assessed as increase in intracellular calcium level by measuring deltaF/F0 ratio level at 0.01 mM by Fluo-4AM dye based FLIPR assay (reference value: 0.09 +/- 0.04).
The target is the same in assay [9]. Description: Agonist activity at N-terminal rat ST3 receptor-fused full length human TAS2R7 transiently expressed in HEK293T cells co-expressing Galpha16gust44 assessed as increase in intracellular calcium level by measuring deltaF/F0 ratio level at 0.16 mM by Fluo-4AM dye based FLIPR assay.
Assay [10] shares this target. Description: Agonist activity at N-terminal rat ST3 receptor-fused full length human TAS2R7 transiently expressed in HEK293T cells co-expressing Galpha16gust44 assessed as increase in intracellular calcium level by measuring deltaF/F0 ratio level at 0.33 mM by Fluo-4AM dye based FLIPR assay.
The target is the same in assay [11]. The experiment in a line: Agonist activity at N-terminal rat ST3 receptor-fused full length human TAS2R7 transiently expressed in HEK293T cells co-expressing Galpha16gust44 assessed as increase in intracellular calcium level by measuring deltaF/F0 ratio level at 0.01 mM by Fluo-4AM dye based FLIPR assay.
Assay [12] has the same target. Description: Agonist activity at N-terminal rat ST3 receptor-fused full length human TAS2R7 transiently expressed in HEK293T cells co-expressing Galpha16gust44 assessed as increase in intracellular calcium level by measuring deltaF/F0 ratio level at 0.04 mM by Fluo-4AM dye based FLIPR assay.
Assay [13] has the same target. Description: Agonist activity at N-terminal rat ST3 receptor-fused full length human TAS2R7 stably expressed in HEK293T cells co-expressing Galpha16gust44 assessed as increase in intracellular calcium level by measuring deltaF/F0 ratio level at 0.08 mM by Fluo-4AM dye based FLIPR assay (reference value: 0.1 +/- 0.04).
Assay [14] has the same target. Description: Agonist activity at N-terminal rat ST3 receptor-fused full length human TAS2R7 stably expressed in HEK293T cells co-expressing Galpha16gust44 assessed as increase in intracellular calcium level by measuring deltaF/F0 ratio level at 2.60 mM by Fluo-4AM dye based FLIPR assay (reference value: 0.65 +/- 0.13).
Assay [15] has the same target. Description: Agonist activity at N-terminal rat ST3 receptor-fused full length human TAS2R7 stably expressed in HEK293T cells co-expressing Galpha16gust44 assessed as increase in intracellular calcium level by measuring deltaF/F0 ratio level at 0.04 mM by Fluo-4AM dye based FLIPR assay (reference value: 0.08 +/- 0.03).
Assay [16] shares this target. The experiment in a line: Agonist activity at N-terminal rat ST3 receptor-fused full length human TAS2R7 transiently expressed in HEK293T cells co-expressing Galpha16gust44 assessed as increase in intracellular calcium level by measuring deltaF/F0 ratio level at 1.3 mM by Fluo-4AM dye based FLIPR assay.
The target is the same in assay [17]. The experiment in a line: Agonist activity at N-terminal rat ST3 receptor-fused full length human TAS2R7 transiently expressed in HEK293T cells co-expressing Galpha16gust44 assessed as increase in intracellular calcium level by measuring deltaF/F0 ratio level at 0.65 mM by Fluo-4AM dye based FLIPR assay.
For assay [18] the target is unchanged. Description: Agonist activity at N-terminal rat ST3 receptor-fused full length human TAS2R7 transiently expressed in HEK293T cells co-expressing Galpha16gust44 assessed as increase in intracellular calcium level by measuring deltaF/F0 ratio level at 0.08 mM by Fluo-4AM dye based FLIPR assay.
For assay [19] the target is unchanged. Description: Agonist activity at N-terminal rat ST3 receptor-fused full length human TAS2R7 transiently expressed in HEK293T cells co-expressing Galpha16gust44 assessed as increase in intracellular calcium level by measuring deltaF/F0 ratio level at 0.02 mM by Fluo-4AM dye based FLIPR assay.

As for `CC(C)[C@H]1CC[C@H](C)C[C@@H]1O`, the Activity result in [1] is “Dose-dependent effect”.
As for `CC(C)[C@@H]1CC[C@@H](C)C[C@H]1O`, the Ratio is 0.09 in [2]; 0.23 in [3]; 0.61 in [4]; 0.65 in assay [5]; 1.03 in assay [6]; 1.16 in assay [7]. For the same compound, the Ratio in [8] amounted to 0.09; in [9] it was 0.15; in [10] it was 0.34; in assay [11] it was 0.09; in [12], 0.08; in assay [13] it was 0.12. Further, the Ratio in [14] came out at 0.92; in assay [15], 0.13; in [16], 0.53; in assay [17] it was 0.41; in assay [18] it was 0.1; in assay [19] it was 0.08. Further, the Activity entry in assay [1] was “Dose-dependent effect”.
